Experimental data published in patent US6887890B2, “Compounds exhibiting thrombopoietin-like activities” (Chugai Seiyaku Kabushiki Kaisha, priority 2000, dated 2005).

System: Mpl-expressing Ba/F3 cell line (human mpl gene)
Test: Measurement of thrombopoietin (TPO) activity: viable cell count of Mpl-expressing Ba/F3 cell line (Cell Count Reagent SF, absorbance 450 nm)
Assay type: cell-based
Settings: for Concentration: concentration corresponding to the maximum TPO activity value; for TPO activity: maximum TPO activity value, ODt/ODs×100 relative to maximum reaction of human TPO, Mpl-expressing Ba/F3 cells cultured at 37° C. for one day, at the concentration given
Procedure: The TPO activities of the compounds of the invention obtained in the aforementioned examples were measured by the procedure described below, for evaluation of their thrombopoietic effects.
Establishment of Mpl-expressing Ba/F3 Cell Line
The human mpl gene was cloned from cDNAs of the human erythroleukemia cell line HEL by PCR, and was incorporated into pCOS1 to construct an expression vector. The expression vector was transfected into Ba/F3 cells by electroporation method, and an Mpl-expressing Ba/F3 clone was established.
Measurement of Thrombopoietin (TPO) Activity
The cytokine-eliminated Mpl-expressing Ba/F3 line was plated in a 96-well plate at 25,000 cells/well. DMSO solutions containing the compounds obtained in each of the examples were then prepared to different specified concentration ranges, and each solution was added to the Mpl-expressing Ba/F3 cell line (final DMSO concentration: ≦0.1%), and the cell were cultured at 37° C. for one day. Human TPO (by R&D Systems or Genzyme) was used as a positive control.
Each of the cultured Mpl-expressing Ba/F3 cell lines was subjected to absorbance measurement at a wavelength of 450 nm (reference wavelength: 620 nm), corresponding to the viable cell count, using Cell Count Reagent SF (by Nacalai Tesque Inc.). The TPO activity of each compound for the Mpl-expressing Ba/F3 cell line was determined based on the following formula. TPO activity (%)=ODt/ODs×100
ODs: Absorbance at maximum reaction of human TPO (wavelength: 450-620 nm).
ODt: Absorbance of test solution (wavelength: 450-620 nm).
Tables 1 and 2 show the maximum TPO activity values and the corresponding concentrations of each compound, as obtained by the test described above.

| Compound | Concentration [µM] | TPO activity [%] |
| --- | --- | --- |
| Cl.NCCCC[C@H](NC(=O)Cc1c[nH]c2ccc(O)cc12)C(=O)Nc1ccc(C(c2ccc(NC(=O)[C@H](CCCCN)NC(=O)Cc3c[nH]c4ccc(O)cc34)cc2)c2ccc(NC(=O)[C@H](CCCCN)NC(=O)Cc3c[nH]c4ccc(O)cc34)cc2)cc1 [Example 18, tris[4-[N-α-[2-(5-hydroxy-1H-indol-3-yl)acetyl]-L-lysyl]aminophenyl]methane hydrochloride] | 50 | 46.5 |
| Cc1[nH]c2ccccc2c1CC(=O)N[C@H](CCCCN)C(=O)Nc1ccc(C(c2ccc(NC(=O)[C@@H](CCCCN)NC(=O)Cc3c(C)[nH]c4ccccc34)cc2)c2ccc(NC(=O)[C@@H](CCCCN)NC(=O)Cc3c(C)[nH]c4ccccc34)cc2)cc1 [Example 21, tris[4-[N-α-[2-(2-methyl-1H-indol-3-yl)acetyl]-D-lysyl]aminophenyl]methane] | 25 | 60.1 |
| N[C@H](CCCCNC(=O)Cc1ccccc1)C(=O)Nc1ccc(C(c2ccc(NC(=O)[C@H](N)CCCCNC(=O)Cc3ccccc3)cc2)c2ccc(NC(=O)[C@H](N)CCCCNC(=O)Cc3ccccc3)cc2)cc1.O=C(O)C(F)(F)F [Example 187, tris[4-[N-ε-(2-phenylacetyl)-D-lysyl]aminophenyl]methane trifluoroacetate] | 25 | 60.2 |
| CN(C)CCCC[C@H](NC(=O)Cc1c[nH]c2ccccc12)C(=O)Nc1ccc(C(c2ccc(NC(=O)[C@H](CCCCN(C)C)NC(=O)Cc3c[nH]c4ccccc34)cc2)c2ccc(NC(=O)[C@H](CCCCN(C)C)NC(=O)Cc3c[nH]c4ccccc34)cc2)cc1 [Example 29, tris[4-[N-α-[2-(1H-indol-3-yl)acetyl]-N-εdimethyl-L-lysyl]aminophenyl]methane] | 25 | 98.5 |
| Cl.NCCCC[C@H](NC(=O)Cc1ccsc1)C(=O)Nc1ccc(C(c2ccc(NC(=O)[C@H](CCCCN)NC(=O)Cc3ccsc3)cc2)c2ccc(NC(=O)[C@H](CCCCN)NC(=O)Cc3ccsc3)cc2)cc1 [Example 13, tris[4-[N-α-[2-(thiophen-3-yl)acetyl]-L-lysyl]aminophenyl]methane hydrochloride] | 25 | 25.7 |
| Cc1cccc2c(CC(=O)N[C@H](CCCCN)C(=O)Nc3ccc(C(c4ccc(NC(=O)[C@@H](CCCCN)NC(=O)Cc5c[nH]c6c(C)cccc56)cc4)c4ccc(NC(=O)[C@@H](CCCCN)NC(=O)Cc5c[nH]c6c(C)cccc56)cc4)cc3)c[nH]c12.Cl [Example 155, tris[4-[N-α-[2-(7-methyl-1H-indol-3-yl)acetyl]-D-lysyl]aminophenyl]methane hydrochloride] | 25 | 44.3 |
| CN(C)CCCC[C@H](NC(=O)Cc1ccsc1)C(=O)Nc1ccc(C(c2ccc(NC(=O)[C@H](CCCCN(C)C)NC(=O)Cc3ccsc3)cc2)c2ccc(NC(=O)[C@H](CCCCN(C)C)NC(=O)Cc3ccsc3)cc2)cc1 [Example 32, tris[4-[N-α-[2-(thiophen-3-yl)acetyl]-N-ε-dimethyl-L-lysyl]aminophenyl]methane] | 25 | 87.1 |
| NCC[C@H](NC(=O)Cc1c[nH]c2ccccc12)C(=O)Nc1ccc(C(c2ccc(NC(=O)[C@H](CCN)NC(=O)Cc3c[nH]c4ccccc34)cc2)c2ccc(NC(=O)[C@H](CCN)NC(=O)Cc3c[nH]c4ccccc34)cc2)cc1.O=C(O)C(F)(F)F [Example 131, tris[4-[β-aminomethyl-N-[2-(1H-indol-3-yl)acetyl]-L-alanyl]aminophenyl]methane trifluoroacetate] | 50 | 88.0 |
| Cl.NCCCSC[C@H](NC(=O)Cc1c[nH]c2ccccc12)C(=O)Nc1ccc(C(c2ccc(NC(=O)[C@H](CSCCCN)NC(=O)Cc3c[nH]c4ccccc34)cc2)c2ccc(NC(=O)[C@H](CSCCCN)NC(=O)Cc3c[nH]c4ccccc34)cc2)cc1 [Example 33, tris[4-[N-[2-(1H-indol-3-yl)acetyl]-S-(3-aminopropyl)-L-cystyl]aminophenyl]methane hydrochloride] | 50 | 17.4 |
| Cl.NCCCC[C@H](NC(=O)Cc1ccc(O)cc1)C(=O)Nc1ccc(C(c2ccc(NC(=O)[C@H](CCCCN)NC(=O)Cc3ccc(O)cc3)cc2)c2ccc(NC(=O)[C@H](CCCCN)NC(=O)Cc3ccc(O)cc3)cc2)cc1 [Example 19, tris[4-[N-α-[2-(4-hydroxyphenyl)acetyl]-L-lysyl]aminophenyl]methane hydrochloride] | 50 | 19.1 |
| Cc1[nH]c2ccccc2c1CC(=O)N[C@@H](CCN)C(=O)Nc1ccc(C(c2ccc(NC(=O)[C@H](CCN)NC(=O)Cc3c(C)[nH]c4ccccc34)cc2)c2ccc(NC(=O)[C@H](CCN)NC(=O)Cc3c(C)[nH]c4ccccc34)cc2)cc1.O=C(O)C(F)(F)F [Example 132, tris[4-[β-aminomethyl-N-[2-(2-methyl-1H-indol-3-yl)acetyl]-L-alanyl]aminophenyl]methane trifluoroacetate] | 50 | 22.3 |
| Cl.N=C(N)NCCC[C@H](NC(=O)Cc1ccsc1)C(=O)Nc1ccc(C(c2ccc(NC(=O)[C@H](CCCNC(=N)N)NC(=O)Cc3ccsc3)cc2)c2ccc(NC(=O)[C@H](CCCNC(=N)N)NC(=O)Cc3ccsc3)cc2)cc1 (stereo partly drawn) [Example 38, tris[4-[N-α-[2-(thiophen-3-yl)acetyl]-L-arginyl]aminophenyl]methane hydrochloride] | 25 | 124 |
| Cl.NCCCC[C@@H](NC(=O)Cc1cccc(O)c1)C(=O)Nc1ccc(C(c2ccc(NC(=O)[C@@H](CCCCN)NC(=O)Cc3cccc(O)c3)cc2)c2ccc(NC(=O)[C@@H](CCCCN)NC(=O)Cc3cccc(O)c3)cc2)cc1 [Example 159, tris[4-[N-α-[2-(3-hydroxyphenyl)acetyl]-D-lysyl]aminophenyl]methane hydrochloride] | 25 | 18.6 |
| NCCCC[C@@H](NC(=O)c1cccc2cc(O)ccc12)C(=O)Nc1ccc(C(c2ccc(NC(=O)[C@@H](CCCCN)NC(=O)c3cccc4cc(O)ccc34)cc2)c2ccc(NC(=O)[C@@H](CCCCN)NC(=O)c3cccc4cc(O)ccc34)cc2)cc1.O=C(O)C(F)(F)F [Example 192, tris[4-[N-α-(6-hydroxynaphthalen-1-yl)carbonyl-D-lysyl]aminophenyl]methane trifluoroacetate] | 25 | 71.3 |
| Cl.NCCCC[C@@H](NC(=O)Cc1ccsc1)C(=O)Nc1ccc(C(c2ccc(NC(=O)[C@@H](CCCCN)NC(=O)Cc3ccsc3)cc2)c2ccc(NC(=O)[C@@H](CCCCN)NC(=O)Cc3ccsc3)cc2)cc1 [Example 23, tris[4-[N-α-[2-(thiophen-3-yl)acetyl]-D-lysyl]aminophenyl]methane hydrochloride] | 25 | 48.0 |
| COc1ccc2c(CC(=O)N[C@H](CCCCN)C(=O)Nc3ccc(C(c4ccc(NC(=O)[C@@H](CCCCN)NC(=O)Cc5c(C)[nH]c6cc(OC)ccc56)cc4)c4ccc(NC(=O)[C@@H](CCCCN)NC(=O)Cc5c(C)[nH]c6cc(OC)ccc56)cc4)cc3)c(C)[nH]c2c1.Cl [Example 146, tris[4-[N-α-[2-(6-methoxy-2-methyl-1H-indol-3-yl)acetyl]-D-lysyl]aminophenyl]methane hydrochloride] | 25 | 83.6 |
